Several values for one entry are separate records, joined by “and”; a condition that tells them apart may be missing. Identical values can stand only once.
Legend:
[1] = Solubility of spironolactone; assay type: physicochemical; conditions: with the help of Pluronic F127
Procedure: The present inventors were able to get spironolactone into solution at 0.015 mg/ml with the help of Pluronic F127.

[2] = test system: patients with moderate to severe MGD; assay: Clinical trial (Example 8): topical Spironolactone (3 mg/ml) in MGD, retrospective pre-post; conditions: for improvement in self-reported global assessment scores / mean improvement in obstruction score / mean improvement in turbidity score / mean improvement in vascularity score / mean improvement in zone A score: positive = score decrease; for Anterior Blepharitis, mean change / Obstruction, mean change / Turbidity, mean change / Vascularity, mean change / Zone A, mean change / Anterior Blepharitis, Mean / Obstruction, Mean / Turbidity, Mean / Vascularity, Mean / Zone A, Mean: scale 0-4; for Subjective Global Assessment, mean change / Global Evaluation, Mean: scale 0-10
[3] = baseline vs follow up 1, low Schirmer's, n=27
[4] = baseline vs follow up 1, low Schirmer's, n=27, scale 0-3
[5] = baseline vs follow up 1, normal Schirmer's, n=75
[6] = final follow-up, patients with >1 follow-ups, low Schirmer's, n=10
[7] = final follow-up, patients with >1 follow-ups, low Schirmer's, n=10, scale 0-3
[8] = final follow-up, patients with >1 follow-ups, normal Schirmer's, n=28
[9] = final follow-up, patients with >1 follow-ups, normal Schirmer's, n=28, scale 0-3
[10] = follow-up 1, low Schirmer's, n=27 (FIG. 10)
[11] = follow-up 1, normal Schirmer's, n=75 (FIG. 9)
[12] = follow-up 1, patients with >1 follow-ups, low Schirmer's, n=10
[13] = follow-up 1, patients with >1 follow-ups, low Schirmer's, n=10, scale 0-3

CC(=O)SC1CC2=CC(=O)CCC2(C)C2CCC3(C)C(CCC34CCC(=O)O4)C12 (stereo not drawn) [spironolactone, 7α-acetylthio-3-oxo-17α-pregn-4-ene-21,17-carbolactone]
concentration brought into solution [1]: 15000 ng/mL
Schirmer's OD, mean change [2, 3]: 2.61±7.03 mm and 2.611 mm
Schirmer's OS, mean change [2, 3]: 2.33±4.74 mm and 2.327 mm
Vision OS, mean change [2, 3]: −0.0198±0.078 log Mar units and −0.0198 log Mar units
improvement in self-reported global assessment scores [2, 3]: 0.98±2.18
mean improvement in obstruction score [2, 3]: 0.39±1.48
mean improvement in turbidity score [2, 3]: 0.69±0.76
mean improvement in vascularity score [2, 3]: 0.33±0.55
mean improvement in zone A score [2, 3]: 0.63±1.21
Keratitis OS Corneal, mean change [2, 4]: 0±0.4 and 0
Keratitis OS Nasal, mean change [2, 4]: 0.15±0.70 and 0.1538
Keratitis OS Temporal, mean change [2, 4]: 0.038±0.56 and 0.03846
Anterior Blepharitis, mean change [2, 3]: 0.0±0.64 and 0
Obstruction, mean change [2, 3]: −0.3889
Turbidity, mean change [2, 3]: −0.6852
Vascularity, mean change [2, 3]: −0.3333
Zone A, mean change [2, 3]: −0.6296
Subjective Global Assessment, mean change [2, 3]: −0.9815
Schirmer's OD, mean change [2, 5]: 0.11±8.07 mm and 0.1096 mm
Schirmer's OS, mean change [2, 5]: 0.92±9.43 mm and 0.9178 mm
improvement in self-reported global assessment scores [2, 5]: 1.29±1.80
mean improvement in obstruction score [2, 5]: 0.36±0.90
mean improvement in turbidity score [2, 5]: 0.93±0.73
mean improvement in vascularity score [2, 5]: 0.31±0.713
mean improvement in zone A score [2, 5]: 0.53±0.83
Keratitis OS Corneal, mean change ([2]; baseline vs follow up 1, normal Schirmer's, n=75, scale 0-3): 0±0.32 and 0
Anterior Blepharitis, mean change [2, 5]: 0.04±0.70 and 0.04
Obstruction, mean change [2, 5]: −0.3633
Turbidity, mean change [2, 5]: −0.9267
Vascularity, mean change [2, 5]: −0.31
Zone A, mean change [2, 5]: −0.5533
Subjective Global Assessment, mean change [2, 5]: −1.287
Schirmer's OD, Mean [2, 6]: 11.7±10.94 and 11.7
Schirmer's OS, Mean [2, 6]: 8.78±9.98 and 8.778
Vision OD, Mean [2, 6]: 0.13±0.15 log Mar units and 0.1264 log Mar units
Vision OS, Mean [2, 6]: 0.11±0.11 log Mar units and 0.1059 log Mar units
Keratitis OD Corneal, Mean [2, 7]: 0.0±0.0 and 0
Keratitis OD Nasal, Mean [2, 7]: 0.75±0.63 and 0.75
Keratitis OD Temporal, Mean [2, 7]: 0.7±0.71 and 0.7
Keratitis OS Corneal, Mean [2, 7]: 0.33±0.5 and 0.3333
Keratitis OS Nasal, Mean [2, 7]: 1.06±0.92 and 1.056
Keratitis OS Temporal, Mean [2, 7]: 0.83±0.79 and 0.8333
Anterior Blepharitis, Mean [2, 6]: 0.2±0.42 and 0.2
Obstruction, Mean [2, 6]: 0.75±0.42 and 0.75
Turbidity, Mean [2, 6]: 2.1±0.74 and 2.1
Vascularity, Mean [2, 6]: 1.4±0.77 and 1.4
Zone A, Mean [2, 6]: 2.8±0.79 and 2.8
Global Evaluation, Mean [2, 6]: 4.4±2.62 and 4.4
Schirmer's OD, Mean [2, 8]: 18.52±9.83 and 18.52
Schirmer's OS, Mean [2, 8]: 17.04±8.48 and 17.04
Vision OD, Mean [2, 8]: 0.05±0.18 log Mar units and 0.04593 log Mar units
Vision OS, Mean [2, 8]: 0.05±0.12 log Mar units and 0.04933 log Mar units
Keratitis OD Corneal, Mean [2, 9]: 0.0±0.0 and 0
Keratitis OD Nasal, Mean [2, 9]: 0.63±0.63 and 0.625
Keratitis OD Temporal, Mean [2, 9]: 0.55±0.60 and 0.5536
Keratitis OS Corneal, Mean [2, 9]: 0.16±0.49 and 0.1607
Keratitis OS Nasal, Mean [2, 9]: 0.75±0.57 and 0.75
Keratitis OS Temporal, Mean [2, 9]: 0.70±0.57 and 0.6964
Anterior Blepharitis, Mean [2, 8]: 0.32±0.78 and 0.3214
Obstruction, Mean [2, 8]: 1.05±0.71 and 1.054
Turbidity, Mean [2, 8]: 1.80±0.83 and 1.804
Vascularity, Mean [2, 8]: 1.13±0.91 and 1.125
Zone A, Mean [2, 8]: 2.71±0.80 and 2.714
Global Evaluation, Mean [2, 8]: 3.55±1.30 and 3.554
increase in Schirmer's I scores ([2]; follow-up 1, low Schirmer's, n=27): approximately 40%
percent reduction in Global Evaluation score from baseline [2, 10]: 22.98%
percent reduction in Turbidity score from baseline [2, 10]: 30.70%
percent reduction in Vascularity score from baseline [2, 10]: 30.48%
percent reduction in Zone A score from baseline [2, 10]: 22.65%
percent reduction in Global Evaluation score from baseline [2, 11]: 27.52%
percent reduction in Obstruction score from baseline [2, 11]: 31.23%
percent reduction in Turbidity score from baseline [2, 11]: 41.82%
percent reduction in Vascularity score from baseline [2, 11]: 24.51%
percent reduction in Zone A score from baseline [2, 11]: 19.86%
Schirmer's OD, Mean [2, 12]: 8.8±6.7 and 8.8
Schirmer's OS, Mean [2, 12]: 7.22±5.19 and 7.222
Vision OD, Mean [2, 12]: 0.07±0.10 log Mar units and 0.06633 log Mar units
Vision OS, Mean [2, 12]: 0.09±0.14 log Mar units and 0.08737 log Mar units
Keratitis OD Corneal, Mean [2, 13]: 0.0±0.0 and 0
Keratitis OD Nasal, Mean [2, 13]: 0.60±0.66 and 0.6
Keratitis OD Temporal, Mean [2, 13]: 0.65±0.71 and 0.65
Keratitis OS Corneal, Mean [2, 13]: 0.22±0.44 and 0.2222
Keratitis OS Nasal, Mean [2, 13]: 1.28±0.57 and 1.278
Keratitis OS Temporal, Mean [2, 13]: 1.0±0.66 and 1
Anterior Blepharitis, Mean [2, 12]: 0.3±0.67 and 0.3
